Our source for the IC50 values is ChEMBL document CHEMBL2086381, “Identification of 4,5-dihydro-4-hydroxygeldanamycins as shunt products of geldanamycin biosynthesis” (J Nat Prod, 2012).

For the test, the system named is HepG2. The test can be described thus: Cytotoxicity against human HepG2 cells. It is filed as functional, cell-based.

`COC1=C2C[C@@H](C)C[C@H](OC)[C@H](O)[C@@H](C)/C=C(\C)[C@H](OC(N)=O)[C@@H](OC)C[C@H](O)/C=C(\C)C(=O)NC(=CC1=O)C2=O` had an IC50 of 10.5 µM.

`COC1=C2C[C@@H](C)C[C@H](OC)[C@H](O)[C@@H](C)/C=C(\C)[C@H](OC(N)=O)[C@@H](OC)C[C@@H](O)/C=C(\C)C(=O)NC(=CC1=O)C2=O` registered an IC50 of 10.8 µM. The IC50 values of the last two compounds are within 1.5-fold of each other.

For `COC1=C2C[C@@H](C)C[C@H](OC)[C@H](O)[C@@H](C)/C=C(\C)[C@H](OC(N)=O)[C@@H](OC)/C=C\C=C(/C)C(=O)NC(=CC1=O)C2=O` [GELDANAMYCIN], the IC50 was 0.37 µM. Against the preceding compound, the IC50 is about 29-fold lower.
